Patent US20220096516A1, “OLIGONUCLEOTIDE MOLECULE AND APPLICATION THEREOF IN TUMOR THERAPY” (Ractigen Therapeutics, priority 2019, published 2022)
d = 2'-deoxy (DNA); r = 2'-OH (RNA)

What was measured:
Assay type in all cases: cell-based, human
U87MG cells = assay: saRNA in combination with chemical drugs, CCK-8 viability and combination index (Compusyn), U87MG
Procedure: (§1) The sRNAs were transfected into cancer cells at different concentrations in combination with different chemical drugs. In FIG. 9A, cell viability in the saRNA treatment group was evaluated by the CCK-8 method and recorded as a percentage relative to the viability of cells in a control (Mock) treatment group. In FIG. 9B, Compusyn© version 1.0 software was used to draw a combination index graphs; and to calculate combination index values as shown in FIG. 9C.
(§2) The compounds used in the study included: Sorafenib (Sora) (SELLECK, S1040), Lenvatinib (Lenv) (SELLECK, S1164), Regorafenib (Rego) (SELLECK, S1178), and Cabozantinib (Cabo) (SELLECK, S1119). Cells were transfected with each candidate saRNAs at varying concentration gradients for 24 hours. Thereafter, the aforementioned compounds were added to the transfected cells at a concentration of 5 μM and the cells were incubated with the compounds for 48 hours. Cell viability was measured using the CCK-8 method. Compusyn© version 1.0 software (ComboSyn, Inc. Paramus, N.J., USA) was used to analyze the combination index (CI) of drugs, wherein CI<1 represented a synergistic effect, CI=1 represented an additive effect, and CI>1 represented an antagonistic effect.

Hep3B cells = assay: Cell viability by CCK-8 method, Hep3B; conditions: 10 nM, 72 h, FIG. 6B
Procedure: (§3) 8 LHPP promoter-targeting saRNAs were individually transfected into liver cancer cells at 10 nM for 72 h. In FIG. 6A, the expression level of LHPP mRNA was analyzed by RT-qPCR. In FIG. 6B, cell viability in the saRNA treatment group was evaluated by the CCK-8 method and recorded as a percentage relative to the viability of cells in a control (Mock) treatment group.
(§4) The cell viability was detected by the following CCK-8 method: the cCells were plated into a 96-well plate at 3-5×10^3 cells/well, cultured overnight, and transfected with the oligonucleotide duplexes. After 72 hour of transfection, 10 uL of CCK-8 solution (Dojindo Molecular Technologies) was added into each well. After 1 hour of incubation at 37° C., a microplate reader was used to measure absorbances at 450 nm. […]

LHPP gene = assay: High-throughput screening of saRNAs targeting LHPP promoter: LHPP mRNA by one-step RT-qPCR in Huh7 cells; conditions: 10 nM saRNA, 72 hours, relative to control (Mock)
Outline: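 LHPP transcript level relative to mock, normalised to the geometric mean of the HPRT1 and TBP reference genes, measured by one-step RT-qPCR on crude lysates. Huh7 cells had been RNAiMax-transfected with each saRNA at 10 nM for 72 h.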

HepG2 cells [1] = assay: Cell viability by CCK-8 method, HepG2; conditions: HepG2, 10 nM, 72 h, FIG. 6B
Procedure: as §3, §4

HepG2 cells [2] = assay: saRNA in combination with chemical drugs, CCK-8 viability and combination index (Compusyn), HepG2
Procedure: as §1, with “The saRNAs” for “The sRNAs”, “with a panel of” for “with different”, “FIG. 8A,” for “FIG. 9A,”, “FIG. 8B,” for “FIG. 9B,”, “FIG. 8C.” for “FIG. 9C.”
as §2

RAG7-133: saRNA duplex; sense GCUCUUUGUCCGCUGAUCUTT (SEQ ID NO: 1), antisense AGAUCAGCGGACAAAGAGCTT (SEQ ID NO: 165) (sugars from the 5' end r19 d2, backbone not given here)
combination index (CI) (U87MG cells; saRNA 1.0 nM to 100 nM with Cabozantinib 5 μM): < 0.1
combination index (CI) (U87MG cells; saRNA 1.0 nM to 100 nM with Lenvatinib 5 μM): < 0.1
combination index (CI) (U87MG cells; saRNA with all the four compounds (Sorafenib, Lenvatinib, Regorafenib, Cabozantinib) 5 μM): < 1
cell proliferation (cell viability, CCK-8) (Hep3B cells): inhibited cell proliferation
Fold of changes in relative LHPP mRNA expression level (LHPP gene): 2.54 fold
Fold of changes in relative LHPP mRNA expression level (log2) (LHPP gene): 1.35 log2
cell proliferation (cell viability, CCK-8) (HepG2 cells [1]): inhibited cell proliferation
combination index (CI) (HepG2 cells [2]; high dose (25 nM to 100 nM) saRNA with Regorafenib 5 μM): < 0.3
combination index (CI) (HepG2 cells [2]; saRNA with Cabozantinib 5 μM): < 1
combination index (CI) (HepG2 cells [2]; saRNA with Lenvatinib 5 μM): > 1
combination index (CI) (HepG2 cells [2]; saRNA with Sorafenib 5 μM): < 1
